Measurements as given in US12233144B2, “Method for stabilizing retinoic acid precursors and a skin benefit composition with stabilized retinoic acid precursors” (Conopco, Inc., priority 2016, dated 2025).
Like-named read-outs stand apart in the source and are kept apart here.

Experiments:
[1] = Storage stability of retinoic acid precursor (RAP) in caprylic capric triglyceride at 45° C, RAP amount by HPLC; assay type: physicochemical; details: for Initial RAP Concentration, Week 0 / RAP Concentration, Week 1 / RAP Concentration, Week 4 / RAP Concentration, Week 20: Example 1, caprylic capric triglyceride carrier, storage 45° C, ER 0.35% where present
Experimental: Compositions were prepared with caprylic capric triglyceride as the carrier to 100%. Storage was maintained at 45° C. Assessment of RAP amount in the formulae was achieved via HPLC using ASTM Standards. […]

[2] = as above; assay type: physicochemical; details: Example 3; RAP alone, no SBA (ratio —)

Week 4 % Remaining [1] [%]	Week 20 % Remaining [1] [%]	Initial RAP Concentration, Week 0 [1] [%]	RAP Concentration, Week 1 [1]	RAP Concentration, Week 4 [1] [%]	RAP Concentration, Week 20 [1] [%]	Week 0 Concentration [2]	Week 1 Concentration [2]	Week 4 Concentration [2]	Week 4 % Remaining ([1]; 4 week, 0.1 %) [%]	Week 20 % Remaining ([1]; 20 week, 0.1 %) [%]	SMILES	Effect on stability of the RAPs (in words) [1]
											CCc1ccc(O)cc1O [4-ethyl resorcinol]	improves the stability of the RAPs by preventing oxidation
0	0	0.36	0.14%	0	0						COc1ccc(C(=O)COC(=O)\C=C(C)/C=C/C=C(C)/C=C/C2=C(C)CCCC2(C)C)cc1 [Retextra ®, hydroxyanasatil retinoate]	
		0.1	0.042%	0.001	0	0.1	0.042	0.001	1	0	CC1=C(/C=C/C(C)=C/C=C/C(C)=C/CO)C(C)(C)CCC1 [Retinol]	
84	0	0.38	No	0.32	0	0.38	0.38	0.32			CCC(=O)OC/C=C(C)/C=C/C=C(C)/C=C/C1=C(C)CCCC1(C)C [Retinyl Propionate]	
